Measured values: ChEMBL document CHEMBL3779853, “Target β-catenin/CD44/Nanog axis in colon cancer cells by certain N'-(2-oxoindolin-3-ylidene)-2-(benzyloxy)benzohydrazides” (Bioorg Med Chem Lett, 2016)
Activity calls are given as the source filed them. The rule behind the calls is not given here.

Assays:
[1] = molecular target: T1, TCF4-CTNNB1 complex (Homo sapiens, UniProt P35222+Q9NQB0); assay: Inhibition of human GST tagged Tcf4/beta catenin interaction after 2 hrs using fluorescent AP Attophos substrate by ELISA analysis; format: protein-complex assay
T1 sequence (P35222 whole entry): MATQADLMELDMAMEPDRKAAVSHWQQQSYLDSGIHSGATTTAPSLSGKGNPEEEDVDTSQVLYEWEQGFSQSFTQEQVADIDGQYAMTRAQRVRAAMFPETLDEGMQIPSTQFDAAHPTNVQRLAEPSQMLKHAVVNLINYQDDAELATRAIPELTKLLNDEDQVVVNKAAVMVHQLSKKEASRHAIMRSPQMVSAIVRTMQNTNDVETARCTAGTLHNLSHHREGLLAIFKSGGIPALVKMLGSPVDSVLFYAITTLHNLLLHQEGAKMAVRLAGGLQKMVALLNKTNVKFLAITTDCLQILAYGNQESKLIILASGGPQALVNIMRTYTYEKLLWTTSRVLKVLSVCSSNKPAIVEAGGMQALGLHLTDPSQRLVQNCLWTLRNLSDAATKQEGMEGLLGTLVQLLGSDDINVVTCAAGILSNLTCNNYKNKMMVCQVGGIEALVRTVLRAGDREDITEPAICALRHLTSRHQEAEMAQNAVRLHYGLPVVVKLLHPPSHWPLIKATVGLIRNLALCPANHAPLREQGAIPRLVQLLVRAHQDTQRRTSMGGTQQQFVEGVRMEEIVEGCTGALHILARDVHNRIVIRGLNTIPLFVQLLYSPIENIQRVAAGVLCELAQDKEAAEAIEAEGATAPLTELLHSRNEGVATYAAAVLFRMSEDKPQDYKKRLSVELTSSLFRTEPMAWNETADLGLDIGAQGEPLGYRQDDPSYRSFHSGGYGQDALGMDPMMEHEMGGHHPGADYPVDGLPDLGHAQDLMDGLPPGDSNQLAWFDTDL
T1 sequence (P15884 whole entry): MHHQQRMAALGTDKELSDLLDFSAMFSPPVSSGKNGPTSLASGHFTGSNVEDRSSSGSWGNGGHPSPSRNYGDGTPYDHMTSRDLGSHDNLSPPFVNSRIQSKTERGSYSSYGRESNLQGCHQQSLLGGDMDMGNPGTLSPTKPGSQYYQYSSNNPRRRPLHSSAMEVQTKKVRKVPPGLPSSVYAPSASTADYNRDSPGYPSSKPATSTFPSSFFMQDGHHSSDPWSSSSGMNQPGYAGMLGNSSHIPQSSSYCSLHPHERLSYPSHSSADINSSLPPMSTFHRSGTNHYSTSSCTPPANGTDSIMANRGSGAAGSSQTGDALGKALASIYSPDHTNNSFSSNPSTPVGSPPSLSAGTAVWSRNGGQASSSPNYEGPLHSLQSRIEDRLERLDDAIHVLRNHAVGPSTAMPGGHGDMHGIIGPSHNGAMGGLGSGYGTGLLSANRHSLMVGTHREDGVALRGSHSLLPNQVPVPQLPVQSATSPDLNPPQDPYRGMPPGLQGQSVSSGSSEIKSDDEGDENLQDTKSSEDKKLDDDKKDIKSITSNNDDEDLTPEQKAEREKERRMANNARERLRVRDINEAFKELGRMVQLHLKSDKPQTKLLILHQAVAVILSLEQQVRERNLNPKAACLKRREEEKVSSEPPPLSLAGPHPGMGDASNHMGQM

[2] = tested on: HT-29; assay: Cytotoxicity against low CD44 expressing human HT-29 cells after 48 hrs by WST-1 assay; format: functional, cell-based
[3] = tested on: LoVo; assay: Cytotoxicity against high CD44 expressing human LoVo cells after 48 hrs by WST-1 assay; format: functional, cell-based
[4] = Cell cycle arrest in low CD44 expressing human […] cells assessed as accumulation at S phase at 5 to 10 uM; format: functional, cell-based
[5] = Inhibition of Wnt/beta catenin pathway (unknown origin) in human LoVo cells transfected with TCF/LEF reporter plasmid assessed as GFP expression at 10 uM after 48 hrs by flow cytometric analysis (reference value: 3.7%); format: cell-based; design: scale not given: the % may be the effect or the level left
[6] = Cell cycle arrest in high CD44 expressing human […] cells assessed as accumulation at M phase at 5 to 10 uM; format: functional, cell-based
[7] = Inhibition of Wnt/beta catenin pathway (unknown origin) in human LoVo cells transfected with TCF/LEF reporter plasmid assessed as GFP expression at 5 uM after 48 hrs by flow cytometric analysis (reference value: 3.7%); format: cell-based; design: scale not given: the % may be the effect or the level left
[8] = Inhibition of Wnt/beta catenin pathway (unknown origin) in human LoVo cells transfected with TCF/LEF reporter plasmid assessed as GFP expression at 2.5 uM after 48 hrs by flow cytometric analysis (reference value: 3.7%); format: cell-based; design: scale not given: the % may be the effect or the level left
[9] = Inhibition of Wnt/beta catenin pathway assessed as downregulation of CD44-mediated Nanog expression in human LoVo cells at 2.5 to 10 uM after 48 hrs by RT-PCR analysis; format: cell-based
[10] = Cell cycle arrest in high CD44 expressing human […] cells assessed as accumulation at S phase at 5 to 10 uM; format: functional, cell-based
[11] = tested on: LoVo; assay: Downregulation of Oct-4 expression in human LoVo cells at 10 uM after 48 hrs by RT-PCR analysis; format: functional, cell-based
[12] = tested on: LoVo; assay: Downregulation of Sox2 expression in human LoVo cells at 10 uM after 48 hrs by RT-PCR analysis; format: functional, cell-based
[13] = Cell cycle arrest in low CD44 expressing human […] cells assessed as accumulation at G2 phase at 5 to 10 uM; format: functional, cell-based
[14] = Cell cycle arrest in low CD44 expressing human […] cells assessed as accumulation at M phase at 5 to 10 uM; format: functional, cell-based
[15] = Cell cycle arrest in high CD44 expressing human […] cells assessed as accumulation at G2 phase at 5 to 10 uM; format: functional, cell-based
[16] = Homo sapiens, HT-29, 48 h, read-out: IC50

Question: With `COc1c(CC(C)OC(=O)c2c(C)cc(O)cc2O)c2c3c(CC(C)OC(=O)c4c(C)cc(O)cc4O)c(OC)c(=O)c4c(O)cc(OC)c(c5c(OC)cc(O)c(c1=O)c52)c43` (centres undefined) as the compound, how does the IC50 [1] read?
Answer: Its IC50 is 4.1 µM.

Question: What does the source list for `CN(Cc1ccccc1)CN1C(=O)/C(=N\NC(=O)c2ccccc2OCc2ccc(Cl)cc2)c2ccccc21`?
Answer: IC50 ([2]; ht-29): Not Active; IC50 [3]: 17.2 µM

Question: For `O=C(N/N=C1\C(=O)N(CN2CCOCC2)c2ccccc21)c1ccccc1OCc1ccccc1`, which IC50 ([2]; ht-29) is on record?
Answer: Its IC50 is “Not Active”.

Question: And the IC50 [3]?
Answer: Its IC50 is 16.3 µM.

Question: Which results are given for `CN(Cc1ccccc1)CN1C(=O)/C(=N\NC(=O)c2ccccc2OCc2ccccc2)c2ccccc21`?
Answer: Activity [4]: inactive; IC50 ([2]; ht-29): Not Active; Activity [5]: 1.7%; Activity [6]: Active; IC50 [3]: 24.9 µM; Activity [7]: 2%; Activity [8]: 2.2%; Activity [9]: Dose-dependent effect; Activity [10]: Active; Activity [11]: inactive; Activity [12]: inactive; Activity [13]: inactive; Activity [14]: inactive; Activity [15]: Active

Question: With `CCCN(CCC)CN1C(=O)/C(=N\NC(=O)c2ccccc2OCc2ccccc2)c2ccccc21` as the compound, how does the IC50 [2, 16] read?
Answer: Its IC50 is 95.5 µM.

Question: What about the IC50 [3] of the same compound?
Answer: The IC50 was 19.8 µM.

Question: Which IC50 [1] does the source give for `CCCC(=O)c1cc2c(c(O)c1C)C(=O)C(=O)c1c(O)cccc1-2` here?
Answer: Its IC50 is 2.4 µM.

Question: Which IC50 [1] does the source give for `COc1c(CC(C)OC(=O)Oc2ccc(O)cc2)c2c3c(CC(C)OC(=O)c4ccccc4)c(OC)c(=O)c4c(O)cc(OC)c(c5c(OC)cc(O)c(c1=O)c52)c43` (centres undefined) here?
Answer: The IC50 was 3.2 µM.

Question: Which IC50 [1] does the source give for `COC(=O)c1c(C)cc2c(c1O)[C@@]1(O)C(=O)c3cc4c(c(O)c3C(=O)[C@]1(OC)[C@H](O)C2)C(=O)C=C(NC1O[C@H](C)[C@@H](OC)[C@H](O)[C@@H]1OC)C4=O` (some centres undefined) here?
Answer: The IC50 was 0.64 µM.

Question: Which IC50 ([2]; ht-29) does the source give for `O=C(N/N=C1\C(=O)N(CN2CCCCC2)c2ccccc21)c1ccccc1OCc1ccccc1` here?
Answer: Its IC50 is “Not Active”.

Question: What about the IC50 [3] of the same compound?
Answer: Its IC50 is 22.4 µM.

Question: What does the source list for `CCN(CC)CN1C(=O)/C(=N\NC(=O)c2ccccc2OCc2ccccc2)c2ccccc21`?
Answer: IC50 [2, 16]: 84.8 µM; IC50 [3]: 14.8 µM

Question: Which IC50 [2, 16] does the source give for `CCCCN(CCCC)CN1C(=O)/C(=N\NC(=O)c2ccccc2OCc2ccccc2)c2ccccc21` here?
Answer: The IC50 was 203 µM.

Question: What about the IC50 [3] of the same compound?
Answer: Its IC50 is 27.2 µM.

Question: Which results are given for `CN(C)CN1C(=O)/C(=N\NC(=O)c2ccccc2OCc2ccccc2)c2ccccc21`?
Answer: IC50 [2, 16]: 48.8 µM; IC50 [3]: 12.9 µM

Question: With `CN(CCO)CN1C(=O)/C(=N\NC(=O)c2ccccc2OCc2ccccc2)c2ccccc21` as the compound, how does the IC50 ([2]; ht-29) read?
Answer: Its IC50 is “Not Active”.

Question: And the IC50 [3]?
Answer: The IC50 was 22.4 µM.
